Measurements taken from patent publication US5633230A, “Treatment of cytomegalovirus infection” (priority 1994, dated 1997).
“And” between values parts separate entries of the source, which are not always exact repeats. Identical values can stand only once.

Tests used:
CMV strain AD-169 [1] = experiment: plaque reduction assay, CMV AD-169 in HFF cells; assay type: cell-based, human CMV; conditions: CMV AD-169, HFF, without 24 h drug pretreatment
Description: (§1) The following procedures were then used to determine inhibitory effects of AV-9 on the replication of CMV. […] This was accomplished by diluting the stock peptide solution in growth medium (10% fetal bovine serum and 10 μg/ml gentamicin in Dulbecco's MEM (DMEM)) used to overlay the monolayers.
[…] Virus was then allowed to adsorb for 1 hour at 37° C. The virus inoculum was removed and the monolayers were overlayed with DMEM containing 2% FBS, 10 ug/ml gentamicin and a specified concentration of AV-9. Virus was next allowed to replicate for 7 to 10 days until the plaques were judged to be well developed, and then the monolayers were fixed and stained with a solution of 1% crystal violet in 1% formaldehyde,70% ethanol. Finally, plaques (each representing a single viable virion) were counted and checked microscopically.
(§2) In a like manner, plaque reduction assays were also performed against other CMV strains and another CMV host, with comparison against ganciclovir (GCV) and foscarnet (FCV).

CMV strain AD-169 [2] = experiment: plaque reduction assay, CMV AD-169 in MRC-5 cells; assay type: cell-based, human CMV; conditions: CMV AD-169, MRC-5 (human embryonic lung), 24 h drug pretreatment
Description: as §1
(§3) After pretreatment with AV-9, the monolayers were overlaid with 0.1 ml log10 dilutions of virus (CMV strain AD-169) ranging from 10^-1 to 10^-6. Virus was then allowed to adsorb for 1 hour at 37° C. The virus inoculum was removed and the monolayers were overlayed with DMEM containing 2% FBS, 10 ug/ml gentamicin and a specified concentration of AV-9. Virus was next allowed to replicate for 7 to 10 days until the plaques were judged to be well developed, and then the monolayers were fixed and stained with a solution of 1% crystal violet in 1% formaldehyde,70% ethanol. Finally, plaques (each representing a single viable virion) were counted and checked microscopically.
as §2

[3] = mouse, in vivo
Description: Ten mice were injected intravenously in the tail vein with 0.25 mL of a solution of 26 μg of ^14 C-labelled compound in 10 mL PBS, and ten mice were given the same dose by subcutaneous injection in the abdomen. One mouse from each group was sacrificed at the time points noted in FIGS. 1 and 2, and the noted organs were weighed and digested to homogeneity for scintillation counting. Counts were measured and used to calculate the amount and concentration of drug in each organ.

CMV strain AD-169 [4] = experiment: CPE assay, CMV AD-169 in HFF cells; assay type: cell-based; conditions: CMV AD-169, HFF (human foreskin fibroblast), without 24 h drug pretreatment
From the text: *CPE assay, all others are plaque reduction assays.

CMV strain Davis = conditions: MRC-5, plaque reduction, 24 h drug pretreatment
Description: The following procedures were then used to determine inhibitory effects of AV-9 on the replication of CMV. First, confluent monolayers of the human diploid cell line, MRC-5 (ATCC# CCL 171) in 24 well cell culture plates were pretreated with specified concentrations (20 μM, 10 μM, 5 μM, 2.5 μM, 1.0 μM, 0.5 μM and 0.0 μM) of AV-9 for 24 hours. This was accomplished by diluting the stock peptide solution in growth medium (10% fetal bovine serum and 10 μg/ml gentamicin in Dulbecco's MEM (DMEM)) used to overlay the monolayers.
as §3, §2

[5] = blood levels after single subcutaneous injection of labelled compound; assay type: in vivo; conditions: mice
Description: Blood levels in mice resulting from single subcutaneous injection of a 53 μg dose of the labelled compound were also evaluated. […] Peak levels were maintained for about 20 minutes. At 40 minutes and 2 hours, blood levels had declined to about 80% of peak values. […] Evidently, the compound AV-9 reaches the bloodstream rapidly.

[6] = single s.c. injection, 53 μg labelled compound

SMILES: CC(=O)N[C@H](CCCNC(=N)N)C(=O)N[C@H](CCCNC(=N)N)C(=O)N[C@H](CCCNC(=N)N)C(=O)N[C@H](CCCNC(=N)N)C(=O)N[C@H](CCCNC(=N)N)C(=O)N[C@H](CCCNC(=N)N)C(=O)N[C@H](CCCNC(=N)N)C(=O)N[C@H](CCCNC(=N)N)C(=O)N[C@H](CCCNC(=N)N)C(N)=O [AV-9, acetyl-[D-Arg]9 -NH2]
- IC50 (CMV strain AD-169 [1]): 12 µM
- IC50 (CMV strain AD-169 [2]): 2.6 µM and 4.8 µM and 2.7 µM
- speed of distribution to tissues [3]: rapid distribution of drug to tissues
- tissue distribution, organs with highest levels [3]: highest and most prolonged levels are attained in the liver, followed by the kidneys and spleen
- IC50 (CMV strain AD-169 [4]): 5.8 µM
- IC50 (CMV strain Davis): 2.3 µM
- blood level relative to peak values ([5]; at 40 minutes and 2 hours, single s.c. 53 μg): about 80%
- blood level relative to peak ([5]; at 4 hour, single s.c. 53 μg): about 10%
- blood level ([5]; at 8 hours and 24 hours, single s.c. 53 μg): threshold of detection
- time near peak blood levels are maintained ([5]; single s.c. 53 μg, summary statement): 20 to 120 min
- near-peak blood level [5, 6]: around 1 μg/ml
- time peak blood levels were maintained [5, 6]: about 20 minutes
- time to near-peak blood levels following injection [5, 6]: 5 min
